{
  "source": "paper PMC8761492",
  "about": "(Life Science Alliance, 2022)",
  "tested_on": "SARS-CoV-2 B.1.1.7",
  "assay": "microbe, parasite or virus in culture",
  "assay_type": "cell-based",
  "conditions": "Severe acute respiratory syndrome coronavirus 2, Caco-2, pretreated 2 h, 24 h, mean ± SEM",
  "data": [
    {"smiles": "CCC(CC)COC(=O)[C@H](C)N[P@](=O)(OC[C@H]1O[C@@](C#N)(c2ccc3c(N)ncnn23)[C@H](O)[C@@H]1O)Oc1ccccc1", "note": "[Remdesivir]", "values": [
      {"measurement": "IC50", "value": 23, "unit": "nM"}
    ]}
  ]
}
